From the OligoGym collection
Bases are written 5' to 3'; sugars and linkages follow in the same order, as letters with counts (s phosphorothioate, o phosphodiester; PS: all linkages phosphorothioate). The collection does not say whether C is 5-methylated. l = locked nucleic acid (LNA); d = 2'-deoxy (DNA)

Target: Tau
Assay: rat primary cortical neurons, FLIPR, 25 uM ASO

Sequence	calcium oscillation score
GTTGGATCAGAGGGTC (sugars l3 d10 l3, PS)	22.2 % of control
GTTTATGATGGATGTTGCCT (sugars l3 d14 l3, PS)	3.32 % of control
GTTTGTAGACTATT (sugars l3 d8 l3, PS)	125 % of control
GTTTGTAGACTATTT (sugars l3 d9 l3, PS)	0 % of control
GTTTTCAAACACACCTT (sugars l3 d10 l4, PS)	104 % of control
GTTTTTTAACTCCCAAC (sugars l4 d9 l4, PS)	74.1 % of control
TAAAGTCCCAGGTC (sugars l3 d8 l3, PS)	72.4 % of control
TAAAGTCCCAGGTCT (sugars l3 d9 l3, PS)	124 % of control
TAAATACATCAATAGAAGGC (sugars l3 d14 l3, PS)	50.4 % of control
TAACCAACTTTCATCTAC (sugars l4 d10 l4, PS)	98.4 % of control
TAACCAACTTTCATCTACTT (sugars l3 d14 l3, PS)	47.2 % of control
TAACCAATTAACCGAA (sugars l3 d10 l3, PS)	179 % of control
TAACCAATTAACCGAACTGC (sugars l3 d14 l3, PS)	125 % of control
TAACCAGCTAGTGGTGCCAC (sugars l3 d14 l3, PS)	18.4 % of control
TAACTCAAATCAATTCTCAT (sugars l4 d12 l4, PS)	63.9 % of control
TAACTCATCAACACCTTTTA (sugars l4 d14 l2, PS)	82.6 % of control
TAACTCTCCTTATCTGA (sugars l2 d11 l4, PS)	29.7 % of control
TAAGGCAAGGCCTATT (sugars l3 d10 l3, PS)	27.2 % of control
TAAGTGATTAACCAATTAAC (sugars l3 d14 l3, PS)	27.2 % of control
TAATAGATCTTTCCCCT (sugars l2 d12 l3, PS)	103 % of control
TAATAGATCTTTCCCCTC (sugars l2 d13 l3, PS)	101 % of control
TAATCACTCATGCCTT (sugars l4 d8 l4, PS)	65.6 % of control

Sequence	calcium oscillation score
TAATCACTCATGCCTTA (sugars l4 d9 l4, PS)	62.9 % of control
TAATCCTACCACCAGA (sugars l2 d10 l4, PS)	86 % of control
TAATCCTGTGCTTC (sugars l3 d8 l3, PS)	2.3 % of control
TAATCCTGTGCTTCA (sugars l3 d9 l3, PS)	86.7 % of control
TAATCCTGTGCTTCAG (sugars l3 d10 l3, PS)	75.8 % of control
TAATGAGCCACACTTGGAGG (sugars l3 d14 l3, PS)	0 % of control
TAATTACATTTTTTCTTTTT (sugars l4 d12 l4, PS)	58.2 % of control
TAATTAGAAACCTCCT (sugars l4 d8 l4, PS)	73.3 % of control
TAATTATTAAATCTTCTCTT (sugars l4 d12 l4, PS)	60.1 % of control
TAATTCACACAACAAACTA (sugars l4 d11 l4, PS)	88.7 % of control
TAATTCATAAATGACTATAC (sugars l3 d14 l3, PS)	72.5 % of control
TAATTCATTTAATTCTCTTC (sugars l4 d12 l4, PS)	60.1 % of control
TAATTCCCAAATTCCTCATA (sugars l2 d14 l4, PS)	53.9 % of control
TACAATCCACTCCTCC (sugars l2 d10 l4, PS)	56.4 % of control
TACACCATCCAAGTCAA (sugars l3 d10 l4, PS)	97 % of control
TACACCATCCAAGTCAATGC (sugars l3 d14 l3, PS)	6.04 % of control
TACACTGTCCTTTAAAC (sugars l4 d11 l2, PS)	66.1 % of control
TACAGTCATTTCATTAC (sugars l4 d9 l4, PS)	64.9 % of control
TACAGTTGGCCCTACCATAT (sugars l3 d14 l3, PS)	52.4 % of control
TACATGCGTCCTTT (sugars l3 d8 l3, PS)	91.8 % of control
TACCAATTATCTTTAAATTC (sugars l4 d12 l4, PS)	64.4 % of control
TACCATGTCGATGCT (sugars l3 d9 l3, PS)	81.6 % of control

Sequence	calcium oscillation score
TACCCATCTTAATTCATTTA (sugars l3 d14 l3, PS)	111 % of control
TACCCCATTTTTGACA (sugars l3 d11 l2, PS)	60.9 % of control
TACCTTTTTATTTCCTC (sugars l4 d11 l2, PS)	41.6 % of control
TACTAGCCCACCCATC (sugars l3 d10 l3, PS)	≥ 200 % of control
TACTAGCCCACCCATCAATT (sugars l3 d14 l3, PS)	54.4 % of control
TACTATCCACTTGTTA (sugars l3 d11 l2, PS)	61.9 % of control
TACTTTATTCCCTTAACAAT (sugars l2 d14 l4, PS)	91.3 % of control
TAGACCACATTTCCATC (sugars l3 d11 l3, PS)	79.1 % of control
TAGACTATTTGCACACTGCC (sugars l3 d14 l3, PS)	51.9 % of control
TAGACTCCTTCTTTAGGCTT (sugars l3 d14 l3, PS)	45.2 % of control
TAGCAAACAGGATACA (sugars l3 d10 l3, PS)	49.8 % of control
TAGCAGAGGAACGTGT (sugars l3 d10 l3, PS)	40.7 % of control
TAGCCCACCCATCAATTTGG (sugars l3 d14 l3, PS)	7.77 % of control
TAGCCCTAAAGTCC (sugars l3 d8 l3, PS)	87.6 % of control
TAGCCCTAAAGTCCCAGGTC (sugars l3 d14 l3, PS)	54 % of control
TAGGAGAGGAAGGTGG (sugars l3 d10 l3, PS)	3.7 % of control
TAGTAAACACCATCTC (sugars l4 d9 l3, PS)	77.2 % of control
TAGTAAACACCATCTCT (sugars l3 d10 l4, PS)	71.4 % of control
TAGTCACTCTGGTG (sugars l3 d8 l3, PS)	81.9 % of control
TAGTCACTCTGGTGA (sugars l3 d9 l3, PS)	78.1 % of control
TAGTTATACAGTTGGCCCTA (sugars l3 d14 l3, PS)	19.1 % of control
TATACAGTTGGCCCTACCAT (sugars l3 d14 l3, PS)	16.7 % of control

Sequence	calcium oscillation score
TATCATATCCTAAGCA (sugars l3 d9 l4, PS)	76 % of control
TATCATTTTCTTTTTCAAAA (sugars l4 d12 l4, PS)	37.3 % of control
TATCCAGCCATATTTCAACT (sugars l3 d14 l3, PS)	47.6 % of control
TATCCTTTGAGCCACACTTG (sugars l3 d14 l3, PS)	11.7 % of control
TATCTGCAAACTCAAC (sugars l4 d8 l4, PS)	98.9 % of control
TATCTTATTGCTTTCCA (sugars l2 d12 l3, PS)	63 % of control
TATGTTTTTTAACTCCC (sugars l4 d11 l2, PS)	94.3 % of control
TATTAATTATCTGCAC (sugars l3 d10 l3, PS)	27.1 % of control
TATTAATTATCTGCACC (sugars l3 d10 l4, PS)	50.9 % of control
TATTAATTCATAAATGACTA (sugars l3 d14 l3, PS)	40.3 % of control
TATTATCCTTTGAGCCACAC (sugars l3 d14 l3, PS)	77.4 % of control
TATTGAACTCACCCACT (sugars l2 d11 l4, PS)	65.7 % of control
TATTGAACTCACCCACTC (sugars l2 d13 l3, PS)	69 % of control
TATTGCTTTCCAATTCCC (sugars l4 d12 l2, PS)	93.2 % of control
TATTGTCCAGGGACCC (sugars l3 d10 l3, PS)	29.9 % of control
TATTGTCCAGGGACCCAATC (sugars l3 d14 l3, PS)	33.2 % of control
TATTTACACTGTCCTTT (sugars l4 d9 l4, PS)	52.1 % of control
TATTTATAGGTGCATA (sugars l3 d9 l4, PS)	0 % of control
TATTTATTCTTTTTATTATT (sugars l4 d12 l4, PS)	58.6 % of control
TATTTCAACTCTTAGCA (sugars l4 d10 l3, PS)	59 % of control
TATTTCCAAATTCACTTTTA (sugars l1 d17 l2, PS)	≥ 200 % of control
TATTTCCAAATTCACTTTTA (sugars l2 d16 l2, PS)	≥ 200 % of control

Sequence	calcium oscillation score
TATTTCCAAATTCACTTTTA (sugars l3 d14 l3, PS)	≥ 200 % of control
TATTTCCAAATTCACTTTTA (sugars l4 d10 l1 d2 l3, PS)	127 % of control
TATTTCCAAATTCACTTTTA (sugars l4 d11 l5, PS)	172 % of control
TATTTCCAAATTCACTTTTA (sugars l5 d10 l5, PS)	≥ 200 % of control
TATTTCCAAATTCACTTTTA (sugars l5 d11 l4, PS)	121 % of control
TATTTCCAAATTCACTTTTA (sugars ldlllddddddddddlldll, PS)	145 % of control
TATTTCCAAATTCACTTTTA (sugars llddldldddddddddllll, PS)	152 % of control
TATTTCCAAATTCACTTTTA (sugars llddlldddddddddldlll, PS)	120 % of control
TATTTCCAAATTCACTTTTA (sugars llddlldddddddddlldll, PS)	123 % of control
TATTTCCAAATTCACTTTTA (sugars lldlddldddddddddllll, PS)	114 % of control
TATTTCCAAATTCACTTTTA (sugars lldldlddddddddddllll, PS)	127 % of control
TATTTCCAAATTCACTTTTA (sugars lldldldddddddddldlll, PS)	129 % of control
TATTTCCAAATTCACTTTTA (sugars lldldldddddddddlldll, PS)	141 % of control
TATTTCCAAATTCACTTTTA (sugars lldllddddddddddlldll, PS)	119 % of control
TATTTCCAAATTCACTTTTA (sugars lldlldddddddddlddlll, PS)	76.7 % of control
TATTTCCAAATTCACTTTTA (sugars lldlldddddddddldldll, PS)	110 % of control
TATTTCCAAATTCACTTTTA (sugars lldlldddddddddllddll, PS)	114 % of control
TATTTCCAAATTCACTTTTA (sugars lllddldddddddddldlll, PS)	147 % of control
